Assay results as given in PubChem BioAssay AID463229 (Broad Institute, 2010).

System: INS-1E rat beta cells, no cytokines, CellTiter-Glo ATP, 48 h
Experiment: cytokine-free beta-cell viability effect – INS-1E rat cells, ATP luminescence, cherry pick, counter-screen for beta-cell apoptosis protection project, dose response (AID 463229)

SMILES	AC50 [µM]
N#CC(C#N)=C1C=CC=CN1/C(=C\c1ccco1)C(=O)c1ccc(Br)cc1	8.57
C=C1C(=O)O[C@@H]2C[C@@H](C)[C@@H]3C=CC(=O)[C@@]3(C)[C@@H](O)[C@H]12	2.02
CCCCCCC[n+]1ccc(-c2cc[n+](CCCCCCC)cc2)cc1	3
CCCCNc1cc(C)nc(NCc2ccccc2)n1	8.1
Nc1nonc1-n1nnc(C(=O)N/N=C/c2ccccc2O)c1CN1CCCC1	22.9
Cc1cnc(NC(=O)CN2CCN(c3ccccn3)CC2)s1	4.35
O=S(=O)(NCc1ccncc1)c1ccc(Br)s1	4.25
CN1CCN(C(c2ccc(C(F)(F)F)cc2)c2ccc3cccnc3c2O)CC1 (stereo not drawn)	4.56
Cc1nn(-c2nc3ccccc3[nH]2)c(=O)c2ccccc12	1.31
COC(=O)C[C@]1(C(=O)OC)CN(C#N)N(c2ccc(Cl)cc2)C12c1ccccc1-c1ccccc12	4.13
CCc1cc(SC#N)cc(C)c1NC(=O)CCl	4.52
CCOC(=O)c1c(C)[nH]c(C)c1C(=O)CSc1nc2ccccc2c(=O)n1-c1ccc(CC)cc1	5.33
Cc1cc(-n2c(SCC(=O)Nc3ccc(F)c(F)c3)nc3n[nH]c(C)c3c2=N)ccc1Cl	5.84
COc1ccc(NS(=O)(=O)c2ccc(N3CCCCC3)c(N)c2)cc1	4.75
CC1=C(CC(=O)c2ccc(Cl)cc2)C(=O)c2ccccc2C1=O	26.6
Clc1ccccc1Nc1nnc(-c2ccncc2)s1	4.64
C=CCc1cccc(/C=N/NC(=O)CCC(=O)Nc2ccc(F)cc2)c1O	10.2
NC(N)=N/N=C/c1cn(-c2ccccc2)nc1-c1cccs1	14.2
CCN1CCN(C2=C(NS(=O)(=O)c3ccccc3)C(=O)c3ccccc3C2=O)CC1	20.3
Fc1ccc(C[n+]2c(-c3ccccc3)cc(-c3ccccc3)cc2-c2ccccc2)cc1	3.99
Cc1nc(C)c(C(=O)N/N=C/c2cc(Br)ccc2O)s1	7.57
CCOC(=O)c1ccc(NC(=O)NCc2cccnc2)cc1	2.01
CCOC(=O)[C@@H]1[C@H]2COc3cc(OC)ccc3[C@H]2N2C(=O)N(c3ccc(C(F)(F)F)cc3)C(=O)[C@]12C	15
c1ccc(CNc2c3ccccc3nc3ccccc23)cc1	11.5
CCOc1ccc(-c2c[n+]3c(n2-c2ccccc2)CCCCC3)cc1	0.982
COc1cnc(-c2ccccn2)nc1Oc1ccc(Cl)c2ccccc12	15.3

SMILES	AC50 [µM]
C=CCn1c(SCN2C(=O)c3ccccc3C2=O)nc2ccc(Cl)cc2c1=O	7.16
Cc1cc2nc(-c3ccc[nH]c3=O)[nH]c2cc1C	2.42
[O-]c1ccccc1-[n+]1c(-c2ccccc2)cc(-c2ccccc2)cc1-c1ccccc1	6.87
COc1cnc(-c2ccccn2)nc1Sc1ccccc1Cl	23.1
Cc1cc(Nc2cccc(Cl)c2)nc(NCc2ccccc2)n1	6.46
O=C(C(Cl)Cl)N1c2ccccc2OCC1c1ccccc1 (stereo not drawn)	8.31
Cn1ncc2c(O/N=C(\N)c3ccc(C(C)(C)C)cc3)ncnc21	6.59
CC(C)(C)c1cc(C(=O)N/N=C/c2ccc([N+](=O)[O-])s2)n[nH]1	6.84
c1ccc2c(c1)ncn2CCCCOc1ccc2c(c1)CCC2	7.37
Oc1cccc(/C=N/NC(=S)Nc2cccnc2)c1O	8.6
CC(Oc1ccc(Cl)cc1Cl)c1nc(-c2ccc(NC(=O)c3cccnc3)cc2)no1 (stereo not drawn)	0.906
CCCCCCCCn1c2c(c(=N)c3c1CCC3)CCCC2	< 0.195
CCCCCn1c(=O)c(C(=O)Nc2nc3ccccc3[nH]2)c(O)c2ccccc21	7.03
Oc1ccc(Br)cc1/C=N/Nc1ccccn1	4.28
CCCCCCCCCCOC(=O)Cn1c(COc2ccc(C)cc2)[n+](C)c2ccccc21	4
Cc1ccc(NC(=O)Nc2cccc([N+](=O)[O-])c2)cc1F	8.06
Cc1ccc2nc(-c3ccccn3)c(NC3CCCC3)n2c1	16.6
COC(=O)c1ccccc1NC1=C/C(=N\S(=O)(=O)c2ccc(C(=O)O)cc2)c2ccccc2C1=O	9.17
O=C(NCc1cccnc1)c1ccc(-c2cc3ccccc3oc2=O)cc1	5.35
N=c1c2c(-c3ccccc3)c(-c3ccccc3)n(Cc3ccco3)c2ncn1Cc1ccccc1	7.01
O=[N+]([O-])c1ccc(NC(=S)NCCc2ccc(Cl)cc2)cc1	8.12
O=C1C(Cl)=C(NCc2cccnc2)C(=O)c2ccccc21	14.3
CCOC(=O)c1cnc(-n2nc(C)cc2C)nc1NCc1ccccc1	7.8
O=C(NNC(=O)c1ccccc1OCc1ccc(F)cc1)c1ccccc1O	13.6
Cc1sc2ncnc(N3CCN(CCOc4ccc(Cl)cc4)CC3)c2c1C	4.74
O=S(=O)(c1ccc(Cl)cc1)N1CCN(Cc2ccc(O)c3ncccc23)CC1	7.13

SMILES	AC50 [µM]
C#CCOCCOCCOCCNc1nc(N2CCN(C(=O)CCCCCCCCCCNC(=O)[C@@H](CCSC)n3cc(CCO)nn3)CC2)nc(N2CCN(C(=O)CCCCCCCCCCNC(=O)[C@H]([C@@H](C)CC)n3cc(CCCCCN)nn3)CC2)n1	12.9
CCCOCc1ccc(O)c2ncccc12	7.79
CCn1c(-c2ccc(C)cc2)nn(CC(=O)NCCc2ccccc2)c1=S	7.22
O=C(NCCc1cn2ccccc2n1)c1cc(COc2ccc3ncccc3c2)on1	8.04
CCCOc1ccc(/C=N/Nc2cc(N3CCOCC3)ncn2)c(O)c1	8.02
COc1ccc(C(=O)c2c(C(F)(F)F)oc3c2C(=O)c2ccccc2C3=O)cc1	6.74
Cc1cccc(-n2c(C)cc(/C=N/n3cnnc3)c2C)c1	14.5
COc1ccccc1NC(=O)CN(c1ccc(C23CC4CC(CC(C4)C2)C3)cc1)S(C)(=O)=O	5.11
CC(=O)Nc1ccc(S(=O)(=O)Nc2ccc(N3CCCCC3)cc2)cc1	4.33
Cc1ccc(Nc2c(-c3ccccn3)nc3cc(C)ccn23)cc1	7.49
Cc1ccc2[nH]c(=O)c(C3C(C#N)=C(N)Oc4c3ccc3cccnc43)cc2c1 (stereo not drawn)	4.74
C=C[C@H](CC(C)C)N(Cc1ccccc1)S(=O)(=O)N(Cc1ccc(OC)cc1)[C@H](C=C)CC(C)C	5.73
O=c1[nH]c(=O)n(Cc2ccco2)c2c1C(C(F)(F)F)(C(F)(F)F)N=C(c1ccc(F)cc1)N2	1.39
Cc1ccc(Cl)cc1N1CCN(C(=O)CSc2nnc3n2C(C)(C)Cc2ccccc2-3)CC1	7.07
Fc1cc(F)c2nc(Nc3nc4c(F)cccc4s3)sc2c1	4.95
O=NN(CCc1ccncc1)c1ccc(OCc2ccccc2)cc1	8.16
COc1ccc(/C=C/c2cc(-c3ccc(C)cc3)o[n+]2C)cc1	0.91
Cc1cc(N2CCN(C)CC2)ccc1NC(=O)c1c2c(nc3ccccc13)CCN(Cc1ccccc1)C2	8
CC1=CC(=O)C(C(C)C)=C/C1=N/OS(=O)(=O)c1ccccc1	1.42
S=C(Nc1ccc(Cl)cc1)Nc1cccc2cnccc12	22.2
O=C(c1ccc(-c2ccc(Cl)cc2)o1)N1CCN(c2ccc([N+](=O)[O-])cc2Cl)CC1	4.92
COc1ccc(CNCCC(c2ccc(OC(C)C)cc2)c2ccccc2OC)cc1 (stereo not drawn)	12.2
O=S(=O)(NCC1CCCO1)c1ccc(-c2ccc(S(=O)(=O)NCC3CCCO3)cc2)cc1 (stereo not drawn)	4.95
Cc1ccc(N(CC(=O)Nc2cc(C)cc(C)c2)S(=O)(=O)c2c(C)noc2C)cc1	14.5
O=C(Nc1nc(-c2ccccn2)cs1)Nc1ccc(F)cc1F	10.2
COc1ccc(O)c(/C=N/Nc2nc(Nc3ccccc3)nc(-n3nc(C)cc3C)n2)c1	11.3
